# Data reported in US11446287B2, “Compounds and methods for EP300 or CBP modulation and indications therefor” (Opna Immuno-Oncology SA, priority 2019, dated 2022).
# Molecular target: T1, Recombinant human CBP containing the bromodomain (CBP-BD (1043-1159)) (Homo sapiens, UniProt Q92793)
# T1 construct: Recombinant human CBP bromodomain (CBP-BD (1043-1159)); made in house; host or cells: E. coli BL21-CodonPlus (DE3), modified pET vector
# Test: CBP Alphascreen binding assay
# Conditions: read-out: CREBBP (CBP) IC50
# In short: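 Buffer: 50 mM HEPES pH 7.5, 50 mM NaCl, 0.01% BSA, 0.01% Triton X-100, 2 mM DTT. The signal was normalised to plate controls and fitted with a four-parameter curve to give IC50.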
# T1 sequence (Q92793 1081-1197): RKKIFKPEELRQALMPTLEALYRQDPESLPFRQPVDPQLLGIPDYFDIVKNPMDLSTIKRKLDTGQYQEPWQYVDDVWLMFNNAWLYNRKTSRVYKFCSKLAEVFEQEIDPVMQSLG
row,SMILES,IC50
1,"Cc1noc(C)c1-c1cnc2c(c1)c(-c1ccc(C(=O)O)cc1OC(C)C)cn2-c1cnc(N2CCC2)nc1 [P-0300, 4-(1-(2-(azetidin-1-yl)pyrimidin-5-yl)-5-(3,5-dimethylisoxazol-4-yl)-1H-pyrrolo[2,3-b]pyridin-3-yl)-3-isopropoxybenzoic acid]",0.1 to 1000 nM
2,"Cc1noc(C)c1-c1cnc2c(c1)c(-c1ccc(C(=O)O)cc1OC(F)(F)F)cn2-c1ccccc1Cl [P-0307, 4-(1-(2-chlorophenyl)-5-(3,5-dimethylisoxazol-4-yl)-1H-pyrrolo[2,3-b]pyridin-3-yl)-3-(trifluoromethoxy)benzoic acid]",0.1 to 1000 nM
3,"Cc1noc(C)c1-c1cnc2c(c1)c(-c1ccc(C(=O)O)cc1OC(F)(F)F)cn2-c1ccc(F)cc1 [P-0279, 4-(5-(3,5-dimethylisoxazol-4-yl)-1-(4-fluorophenyl)-1H-pyrrolo[2,3-b]pyridin-3-yl)-3-(trifluoromethoxy)benzoic acid]",0.1 to 1000 nM
4,"Cc1noc(C)c1-c1cnc2c(-c3ccc(C(=O)O)cc3C#N)c(C(F)(F)F)n([C@@H](C)c3ccccn3)c2c1 [P-0256, (S)-3-cyano-4-(6-(3,5-dimethylisoxazol-4-yl)-1-(1-(pyridin-2-yl)ethyl)-2-(trifluoromethyl)-1H-pyrrolo[3,2-b]pyridin-3-yl)benzoic acid]",0.1 to 1000 nM
5,"Cc1cc(-c2c(C(F)(F)F)n([C@@H](C)c3ccccn3)c3cc(-c4c(C)noc4C)cnc23)ccc1C(=O)O [P-0243, (S)-4-(6-(3,5-dimethylisoxazol-4-yl)-1-(1-(pyridin-2-yl)ethyl)-2-(trifluoromethyl)-1H-pyrrolo[3,2-b]pyridin-3-yl)-2-methylbenzoic acid]",1000 to 8000 nM
6,"Cc1noc(C)c1-c1cnc2c(c1)c(-c1ccc(C(=O)O)c(F)c1)cn2C(c1ccccn1)C1CCCC1 (centres unmarked) [P-0025, 4-(1-(cyclopentyl(pyridin-2-yl)methyl)-5-(3,5-dimethylisoxazol-4-yl)-1H-pyrrolo[2,3-b]pyridin-3-yl)-2-fluorobenzoic acid]",0.1 to 1000 nM
7,"CCOc1cc(O)c(C(=O)O)cc1-c1cn(-c2ccc(F)cc2F)c2ncc(-c3c(C)noc3C)cc12 [P-0249, 5-(1-(2,4-difluorophenyl)-5-(3,5-dimethylisoxazol-4-yl)-1H-pyrrolo[2,3-b]pyridin-3-yl)-4-ethoxy-2-hydroxybenzoic acid]",0.1 to 1000 nM
8,"CCOc1cc(C(=O)O)cc(OCC)c1-n1cc(-c2cnn(CC(C)(C)O)c2)c2ncc(-c3c(C)noc3C)cc21 [P-0260, 4-(6-(3,5-dimethylisoxazol-4-yl)-3-(1-(2-hydroxy-2-methylpropyl)-1H-pyrazol-4-yl)-1H-pyrrolo[3,2-b]pyridin-1-yl)-3,5-diethoxybenzoic acid]",0.1 to 1000 nM
